Where “and” joins values, the source holds several entries; their conditions need not be identical. Equal values may be shown once.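 Values below derive from 48-hour exposures of cells grown in 96-well plates, with endpoints linearly interpolated between the two concentrations bracketing the appropriate inhibition level. GI50 marks 50% less growth. TGI marks complete inhibition of growth.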
Columns and labels:
Assay in all cases: growth of human tumour cells (NCI), 48 h
MCF7 breast = system: MCF7 breast
SNB-75 CNS = system: SNB-75 CNS
EKVX NSCLC = system: EKVX NSCLC
A498 renal = system: A498 renal
OVCAR-8 ovarian = system: OVCAR-8 ovarian
LOX IMVI melanoma = system: LOX IMVI melanoma
MDA-N = system: MDA-N
HCT-15 colon = system: HCT-15 colon
SK-OV-3 ovarian = system: SK-OV-3 ovarian
LXFL 529 NSCLC = system: LXFL 529 NSCLC

Row | SMILES | GI50 (MCF7 breast) [µM] | TGI (MCF7 breast) [µM] | GI50 (SNB-75 CNS) [µM] | TGI (SNB-75 CNS) [µM] | GI50 (EKVX NSCLC) | TGI (EKVX NSCLC) [µM] | GI50 (A498 renal) [µM] | TGI (A498 renal) | GI50 (OVCAR-8 ovarian) [µM] | TGI (OVCAR-8 ovarian) [µM] | GI50 (LOX IMVI melanoma) [µM] | TGI (LOX IMVI melanoma) | GI50 (MDA-N) [µM] | TGI (MDA-N) [µM] | GI50 (HCT-15 colon) | TGI (HCT-15 colon) [µM] | TGI (SK-OV-3 ovarian) [µM] | TGI (LXFL 529 NSCLC) [µM] | GI50 (SK-OV-3 ovarian)
1 | CC(=O)NC1CCCN(O)C(=O)/C=C(/C)CCOC(=O)C(NC(C)=O)CCCN(O)C(=O)/C=C(/C)CCOC(=O)C(NC(C)=O)CCCN(O)C(=O)/C=C(/C)CCOC1=O.[Fe] (stereo not drawn) | > 100 | > 100 | > 100 | > 100 | > 100 µM | > 100 | > 100 | > 100 µM | > 100 | > 100 | > 100 | > 100 µM | > 100 | > 100 | > 100 µM | > 100 | – | – | –
2 | Cc1ccc2nc3sc(=O)sc3nc2c1 | – | 31.4 | – | 64.8 | – | 27.2 | – | 20.2 µM | – | 28.6 | – | 28.2 µM | – | 32 | – | 31.3 | 34.6 | – | –
3 | Nc1nc2c(c(=O)[nH]1)N=C(COP(=O)(O)OP(=O)(O)O)CN2 | – | > 100 | – | > 100 | – | > 100 | – | > 100 µM | – | > 100 | – | > 100 µM | – | > 100 | – | > 100 | > 100 | – | –
4 | S=C(Nc1ccc(Cl)cc1)SC1CCCCC1 | – | 40.6 | – | 74.4 | – | 47 | – | – | – | > 100 | – | 42.8 µM | – | 47 | – | 69.4 | 94.9 | – | –
5 | CC(C)(C)C1CCC(CI)(N=[N+]=[N-])CC1 (stereo not drawn) | – | – | – | > 100 | – | > 100 | – | > 100 µM | – | > 100 | – | – | – | – | – | > 100 | > 100 | > 100 | –
6 | COC(=O)[C@H]1CC(=O)C=C2CCCC21 (stereo partly drawn) | – | – | – | > 100 | – | > 100 | – | > 100 µM | – | > 100 | – | > 100 µM | – | – | – | > 100 | > 100 | > 100 | –
7 | O=C(O)c1ccccc1-c1ccccc1C(=O)Nc1ccc2c(c1)Cc1ccccc1-2 | – | > 100 | – | > 100 | – | 54.8 | – | 44 µM | – | > 100 | – | 54.5 µM | – | 77.1 | – | 56 | > 100 | – | –
8 | Cc1ccc(C)c(NC(=O)C(=O)CC(=O)c2cccc3ccccc23)c1 | – | – | – | > 100 | – | > 100 | – | > 100 µM | – | > 100 | – | > 100 µM | – | – | – | > 100 | > 100 | > 100 | –
9 | CC[C@@]1(O)C(=O)OCc2c1cc1n(c2=O)Cc2cc3c(Cl)c4c(cc3nc2-1)OCO4 | – | 0.193 | 0.00288 | > 100 | 5.93 µM and 1.91 µM | > 100 | 0.00182 | 0.309 µM and 1.19 µM | < 0.001 | – | < 0.001 | 0.218 µM and 0.321 µM | – | > 100 | 0.215 µM and 0.178 µM | > 100 | – | – | 0.00265 µM and 0.0176 µM
10 | CC1=C(C(=O)Nc2cccc(C(F)(F)F)c2)C(c2ccccc2F)C(C(=O)Nc2cccc(C(F)(F)F)c2)=C(C)N1 | – | – | – | 79.6 | – | 17.5 | – | 24.3 µM | – | 28.2 | – | 18.3 µM | – | – | – | – | 25.9 | 19.2 | –
11 | CCOC(=O)C/C(N)=C(\C#N)C(=O)OCC | – | – | – | > 100 | – | > 100 | – | > 100 µM | – | > 100 | – | > 100 µM | – | – | – | > 100 | > 100 | > 100 | –
12 | O=C(O)/C(=C/c1ccccc1[N+](=O)[O-])c1cccs1 | – | – | – | > 100 | – | > 100 | – | > 100 µM | – | > 100 | – | > 100 µM | – | – | – | > 100 | > 100 | > 100 | –
13 | NS(=O)(=O)c1cccc(-c2cc3ccncc3cc2OCc2ccccc2)c1 | 10.5 | > 25 | 3.23 | > 25 | 9.67 µM | > 25 | 2.17 | 13 µM | 10.1 | > 25 | 12.4 | > 25 µM | – | – | 7.67 µM | > 25 | > 25 | – | > 18.5 µM
14 | Cc1ccc(C2NC(=S)N3C(c4ccc(C)cc4)NC(=S)N23)cc1 (stereo not drawn) | 2.73 | 12.9 | 2.87 | 12.1 | 7.93 µM | 25.3 | 5.57 | 18 µM | 7.36 | 25.1 | 8.84 | 22.1 µM | – | – | 3.7 µM | 15.3 | 15.5 | – | 4.77 µM
15 | Nc1ncnc2c1nc(N)n2C1OC(CO)C(O)C1O (stereo not drawn) | 0.389 | 10.4 | 1.88 | 3.7 | 0.231 µM | 1.27 | 0.657 | 1.94 µM | 0.63 | 2.98 | 0.212 | 1.17 µM | – | – | 0.433 µM | 10.7 | 3.45 | – | 0.52 µM
16 | CCCCCCCCCCCCNC(=O)[C@H]1CSC(c2cc(Br)cs2)N1 (stereo partly drawn) | 2.16 | 8.82 | 0.851 | 1.56 | 0.918 µM | 1.77 | 7.38 | 14.1 µM | 1.58 | 4.67 | 0.797 | 1.56 µM | – | – | 1.03 µM | 2.38 | 2.23 | – | 1.06 µM
17 | O=C(N/N=C/c1ccncc1)c1ccc(C(F)(F)F)nc1Nc1cccc(C(F)(F)F)c1 | 2.27 | 8.52 | 4.34 | 17 | 1.39 µM | 8.87 | 2.91 | 10 µM | 2.39 | 10.4 | 0.913 | 12.3 µM | – | – | 0.804 µM | 11.7 | 6.67 | – | 2.13 µM
18 | COc1ccccc1N(C(C)=O)C1=C(Cl)C(=O)c2ccccc2C1=O | 2.4 | 10.5 | 1.72 | 7.6 | 0.751 µM | 6.95 | 1.54 | 7.69 µM | 2.72 | > 32.2 | 2.29 | 8.08 µM | – | – | 1.04 µM | 2.61 | 7.33 | – | 2.46 µM
19 | N#Cc1ccc(N2Cc3cc(Cl)ccc3OC3=C2C(=O)N(Cc2ccc(F)cc2)C3=O)cc1 | 0.712 | 3.03 | 0.558 | 1.72 | 1.08 µM | 4.24 | 3.26 | 15.3 µM | 1.43 | 3.12 | 0.453 | 0.908 µM | – | – | 0.543 µM | 1.43 | 55.7 | – | 16.2 µM

Source: PubChem BioAssay (NCI)
